Test results published in publication PMC9926234, “Iterative computational design and crystallographic screening identifies potent inhibitors targeting the Nsp3 macrodomain of SARS-CoV-2” (Proceedings of the National Academy of Sciences of the …, 2023).
Read-outs that look alike come from different tables or passages of the source.

Key:
SARS-CoV-2 NSP3 Mac1 [1] = biological target: SARS-CoV-2 NSP3 Mac1 (Severe acute respiratory syndrome coronavirus 2, UniProt P0DTD1); type: binding; settings: for 1-BDC (PanDDA): 1 minus background density correction; for 1-BDC (PanDDA) / Refined occupancy: crystal soaking of Mac1; for Refined occupancy: ligand occupancy after refinement (phenix.refine); for Comment (ligand modelled in the crystal structure): what was observed in density instead of the vendor structure
SARS-CoV-2 NSP3 Mac1 [2] = experiment: Overall hit call (binding in crystallographic soaking or the HTRF-based binding assay)
From the text: Supplement pnas.2212931120.sd01.xlsx, sheet "Compound Summary" | column: HIT*

[3] = PanDDA 1-BDC of the event, compound stock 100 mM, Echo dispense volume 80 nl
[4] = PanDDA event map 1-BDC, crystal soak, Compound_concentration 100 mM, PanDDA run dmso_34 or nohits_35 per dataset
[5] = crystal soak, Compound_concentration 100 mM, Echo dispense 40 nl, PanDDA run dmso_34 or nohits_35 per dataset
[6] = crystal soak, compound stock 100 mM, Echo dispense volume 80 nl
[7] = PanDDA 1-BDC of the event, compound stock 100 mM, Echo dispense volume 40 nl
[8] = crystal soak, compound stock 100 mM, Echo dispense volume 40 nl
[9] = ligand modeled in structure, compound stock 100 mM, Echo dispense volume 80 nl
[10] = ligand modeled in this dataset, crystal soak, Compound_concentration 100 mM

Row | Structure (SMILES) | 1-BDC (SARS-CoV-2 NSP3 Mac1 [1]; [3]) | 1-BDC (PanDDA) (SARS-CoV-2 NSP3 Mac1 [1]; PanDDA event map) | PanDDA hit? (SARS-CoV-2 NSP3 Mac1 [1]; [6]) | Refined occupancy (SARS-CoV-2 NSP3 Mac1 [1]) | HIT* (SARS-CoV-2 NSP3 Mac1 [2]) | further results
1 | COC(=O)CC1CN(c2ncnc3[nH]c4cc(F)ccc4c23)CCO1 (stereo not shown) [LL114_0040] | 0.08 | 0.08 | TRUE | 16 | Y | 1-BDC (SARS-CoV-2 NSP3 Mac1 [1]; [4]): 0.11; 1-BDC (SARS-CoV-2 NSP3 Mac1 [1]; PanDDA event map, crystal soak, Compound_concentration 100 mM, Echo_dispense_volume 40 nl): 0.08; PanDDA hit? (SARS-CoV-2 NSP3 Mac1 [1]; [5]): TRUE; PanDDA hit? (SARS-CoV-2 NSP3 Mac1 [1]; crystal soak, Compound_concentration 100 mM, Echo_dispense_volume 40 nl, PanDDA run (background map) dmso_34, nohits_35 or nohits_62): TRUE; Modeled? (SARS-CoV-2 NSP3 Mac1 [1]; ligand modeled, crystal soak, Compound_concentration 100 mM, Echo_dispense_volume 40 nl): TRUE
2 | O=S1(=O)CC(CNc2ncnc3[nH]c4cc(F)ccc4c23)C1 [LRH-0005] | 0.1 | 0.1 | TRUE | 20 | Y | 1-BDC (SARS-CoV-2 NSP3 Mac1 [1]; [7]): 0.1; PanDDA hit? (SARS-CoV-2 NSP3 Mac1 [1]; [8]): TRUE; Modeled? (SARS-CoV-2 NSP3 Mac1 [1]; [9]): TRUE
3 | O=S1(=O)CCC1CNc1ncnc2[nH]c3cc(F)ccc3c12 (stereo not shown) [LRH-0012] | 0.06 | 0.07 | TRUE | 14 | Y | 1-BDC (SARS-CoV-2 NSP3 Mac1 [1]; [4]): 0.07; PanDDA hit? (SARS-CoV-2 NSP3 Mac1 [1]; [5]): TRUE; Modeled? (SARS-CoV-2 NSP3 Mac1 [1]; [10]): TRUE
4 | O[C@@H]1CC[C@H](Nc2ncnc3[nH]c4cc(F)ccc4c23)C1 [LRH-0018] | 0.07 | 0.07 | TRUE | 14 | Y | 1-BDC (SARS-CoV-2 NSP3 Mac1 [1]; [4]): 0.07; PanDDA hit? (SARS-CoV-2 NSP3 Mac1 [1]; [5]): TRUE; Modeled? (SARS-CoV-2 NSP3 Mac1 [1]; [10]): TRUE
5 | O=C(O)[C@@H]1CCC[C@H](Nc2ncnc3[nH]c4cc(F)ccc4c23)C1 [LRH-0022] | 0.32 | 0.32 | TRUE | 64 | Y | 1-BDC (SARS-CoV-2 NSP3 Mac1 [1]; [7]): 0.28; PanDDA hit? (SARS-CoV-2 NSP3 Mac1 [1]; [8]): TRUE; Modeled? (SARS-CoV-2 NSP3 Mac1 [1]; [9]): TRUE; Comment (ligand modelled in the crystal structure) (SARS-CoV-2 NSP3 Mac1 [1]): pyrimido-indole core only
6 | [O-][n+]1cccc(Nc2ncnc3[nH]c4cc(F)ccc4c23)c1 [LRH-0031] | 0.17 | 0.17 | TRUE | 34 | Y | 1-BDC (SARS-CoV-2 NSP3 Mac1 [1]; [7]): 0.18; PanDDA hit? (SARS-CoV-2 NSP3 Mac1 [1]; [8]): TRUE; Modeled? (SARS-CoV-2 NSP3 Mac1 [1]; [9]): TRUE; Comment (ligand modelled in the crystal structure) (SARS-CoV-2 NSP3 Mac1 [1]): pyrimido-indole core only
7 | CN(c1ncnc2[nH]c3cc(F)ccc3c12)C1CCCS(=O)(=O)C1 (stereo not shown) [LRM-0010] | 0.06 | 0.06 | TRUE | 12 | Y | Modeled? (SARS-CoV-2 NSP3 Mac1 [1]; [9]): TRUE
8 | O=C(O)CC1CC(CNC(=O)c2cncc3sccc23)C1 (stereo not shown) [Z1558] | – | – | – | – | Y | –
9 | CC(Cc1ccco1)C(=O)N[C@@H](CC(=O)O)c1ccc2c(c1)OCO2 (stereo partly shown) [Z1877] | – | – | – | – | Y | –
10 | Cc1oc(CNc2ncnc3[nH]c4ccccc4c23)cc1C(=O)O [Z3124] | – | – | – | – | Y | –
11 | CC(F)(F)c1cncc(C(=O)NC(Cc2cncc(Br)c2)C(=O)O)c1 (stereo not shown) [Z3140] | – | – | – | – | Y | –
12 | O=C(NS(=O)(=O)Cc1ccc(Br)c(F)c1)c1cnn2ccccc12 [Z3209] | – | – | – | – | Y | –
13 | O=C1OCCN1C1CCN(c2ncnc3[nH]c4cc(F)ccc4c23)C1 (stereo not shown) [Z5107] | – | – | – | – | Y | –
14 | O=C(O)Cc1cccc(CNC(=O)c2ncnc3ccsc23)c1 [Z5712] | – | – | – | – | Y | –
15 | O=C(O)Cc1ccc(CNC(=O)c2ccnc3ccsc23)cc1 [Z6625] | – | – | – | – | Y | –
16 | COc1cncc(C(=O)NCCNC(=O)c2ncccc2O)c1 [Z6634] | – | – | – | – | Y | –
